According to patent publication US10646488B2 (Araxes Pharma LLC, priority 2016, dated 2020):

Target: T1, KRAS G12C 1-169, his-tagged protein, GDP-loaded (Homo sapiens, UniProt P01116, G12C)
T1 construct: KRAS G12C 1-169, his-tagged protein, GDP-loaded
Experiment: Covalent binding (% modification) to KRAS G12C by mass spectrometry; further: test concentration or dose not given here
Details: covalent binding to KRAS G12C after a ten minute incubation period

Compound	Binding %
C=CC(=O)N1CCN(c2nc(N3CC(N(C)C)C3)nc3c(F)c(-c4c(C)ccc5cn[nH]c45)c(Cl)cc23)C[C@H]1C (atropisomer, axis not shown) [Compound 70, 1-((R)-4-((R)-6-chloro-2-(3-(dimethylamino)azetidin-1-yl)-8-fluoro-7-(6-methyl-1H-indazol-7-yl)quinazolin-4-yl)-2-methyl-piperazin-1-yl) prop-2-en-1-one]	+++ (+++ indicates binding activity greater than 90%)
C=CC(=O)N1[C@H](C)CN(c2nc(OCCN3CC(F)(F)C3)nc3c(F)c(-c4c(C)ccc5cn[nH]c45)c(Cl)cc23)C[C@@H]1C [Compound 30, 1-((2R,6S)-4-(6-chloro-2-(2-(3,3-difluoroazetidin-1-yl)ethoxy)-8-fluoro-7-(6-methyl-1H-indazol-7-yl)quinazolin-4-yl)-2,6-dimethyl-piperazin-1-yl) prop-2-en-1-one]	++ (++ indicates binding activity from 50 to 90%)
C=CC(=O)N1C(C)CN(c2nc(N)nc3c(F)c(-c4c(O)cccc4F)c(Cl)cc23)CC1C (stereo not shown) [Compound 2, 1-(4-(2-amino-6-chloro-8-fluoro-7-(2-fluoro-6-hydroxyphenyl)quinazolin-4-yl)-2,6-dimethyl-piperazin-1-yl) prop-2-en-1-one]	++ (++ indicates binding activity from 50 to 90%)
C=CC(=O)N1CCN(c2nc(N)nc3c(F)c(-c4c(O)cccc4F)c(Cl)cc23)C[C@H]1C [Compound 1, 1-((2R)-4-(2-amino-6-chloro-8-fluoro-7-(2-fluoro-6-hydroxyphenyl)quinazolin-4-yl)-2-methylpiperazin-1-yl)prop-2-en-1-one]	++ (++ indicates binding activity from 50 to 90%)
C=CC(=O)N1CCN(c2c(C#N)c(N3CC(N(C)C)C3)nc3c(F)c(-c4c(O)cccc4F)c(Cl)cc23)C[C@H]1C [Compound 76]	+ (+ indicates binding activity up to 50%)

Same assay, conditions: covalent binding to KRAS G12C after a three minute incubation period

Compound	Binding %
[2H]C([2H])([2H])N(C1CN(c2nc(N3C[C@@H](C)N(C(=O)C=C)C[C@@H]3C)c3cc(Cl)c(-c4cc(O)cc5ccccc45)c(F)c3n2)C1)C([2H])([2H])[2H] (atropisomer, axis not shown) [Compound 228]	+++ (+++ indicates binding activity greater than 90%)
C=CC(=O)N1C[C@@H](C)N(c2nc(N3CC(N(C)C)C3)nc3c(F)c(-c4c(O)cccc4F)c(Cl)cc23)C[C@@H]1C [Compound 87, 1-((2S,5R)-4-(6-chloro-2-(3-(dimethylamino)azetidin-1-yl)-8-fluoro-7-(2-fluoro-6-hydroxyphenyl)quinazolin-4-yl)-2,5-dimethyl-piperazin-1-yl) prop-2-en-1-one]	+ (+ indicates binding activity greater than 0% and up to 50%)
C=CC(=O)N1C[C@H](C)N(c2nc(OCCN3CC(F)(F)C3)nc3c(F)c(-c4c(O)cccc4F)c(Cl)cc23)C[C@H]1C (atropisomer, axis not shown) [Compound 90, 1-((2R,5S)-4-(6-chloro-2-(2-(3,3-difluoroazetidin-1-yl)ethoxy)-8-fluoro-7-((S)-2-fluoro-6-hydroxyphenyl)quinazolin-4-yl)-2,5-dimethyl-piperazin-1-yl) prop-2-en-1-one]	+++ (+++ indicates binding activity greater than 90%)
C=CC(=O)N1C[C@H](C)N(c2nc(OCCCN(C)C)nc3c(F)c(-c4c(O)cccc4F)c(Cl)cc23)C[C@H]1C [Compound 172, 1-((2R,5S)-4-(6-chloro-2-(3-(dimethylamino)propoxy)-8-fluoro-7-(2-fluoro-6-hydroxyphenyl)quinazolin-4-yl)-2,5-dimethyl-piperazin-1-yl) prop-2-en-1-one]	+++ (+++ indicates binding activity greater than 90%)
C=CC(=O)N1C[C@H](C)N(c2nc(N3CC(N(C)C)C3)nc3c(F)c(-c4cc(O)cc5ccccc45)c(Cl)cc23)C[C@H]1C (atropisomer, axis not shown) [Compound 220, 1-((2R,5S)-4-(6-chloro-2-(3-(dimethylamino)azetidin-1-yl)-8-fluoro-7-((R)-3-hydroxynaphthalen-1-yl)quinazolin-4-yl)-2,5-dimethyl-piperazin-1-yl) prop-2-en-1-one]	+ (+ indicates binding activity greater than 0% and up to 50%)
C=CC(=O)N1C[C@H](C)N(c2nc(OCCN3CC(F)(F)C3)nc3c(F)c(-c4c(C)ccc5cn[nH]c45)c(Cl)cc23)C[C@H]1C (atropisomer, axis not shown) [Compound 128, 1-((2R,5S)-4-(6-chloro-2-(2-(3,3-difluoroazetidin-1-yl)ethoxy)-8-fluoro-7-((S)-6-methyl-1H-indazol-7-yl)quinazolin-4-yl)-2,5-dimethyl-piperazin-1-yl) prop-2-en-1-one]	+ (+ indicates binding activity greater than 0% and up to 50%)
C=CC(=O)N1C[C@H](C)N(c2nc(OCCc3ncccn3)nc3c(F)c(-c4c(C)ccc5[nH]ncc45)c(Cl)cc23)C[C@H]1C [Compound 197, 1-((2R,5S)-4-(6-chloro-8-fluoro-7-(5-methyl-1H-indazol-4-yl)-2-(2-(pyrimidin-2-yl)ethoxy)quinazolin-4-yl)-2,5-dimethyl-piperazin-1-yl) prop-2-en-1-one]	+++ (+++ indicates binding activity greater than 90%)
C=CC(=O)N1C[C@H](C)N(c2nc(N3CC(N4CCC(F)(F)C4)C3)nc3c(F)c(-c4c(O)cccc4F)c(Cl)cc23)C[C@H]1C [Compound 103, 1-((2R,5S)-4-(6-chloro-2-(3-(3,3-difluoro-pyrrolidin-1-yl)azetidin-1-yl)-8-fluoro-7-(2-fluoro-6-hydroxyphenyl)quinazolin-4-yl)-2,5-dimethyl-piperazin-1-yl) prop-2-en-1-one]	+ (+ indicates binding activity greater than 0% and up to 50%)
CC(C)/C=C(\C#N)C(=O)N1C[C@H](C)N(c2nc(N3CC(N(C)C)C3)nc3c(F)c(-c4c(O)cccc4F)c(Cl)cc23)C[C@H]1C [Compound 101, (E)-2-((2R,5S)-4-(6-chloro-2-(3-(dimethylamino)azetidin-1-yl)-8-fluoro-7-(2-fluoro-6-hydroxyphenyl)quinazolin-4-yl)-2,5-dimethyl-piperazine-1-carbonyl)-4-methylpent-2-enenitrile]	+ (+ indicates binding activity greater than 0% and up to 50%)
C=CC(=O)N1C[C@H](C)N(c2nc(Oc3cn[nH]c3)nc3c(F)c(-c4c(O)cccc4F)c(Cl)cc23)C[C@H]1C [Compound 222, 1-((2R,5S)-4-(2-(1H-pyrazol-4-yloxy)-6-chloro-8-fluoro-7-(2-fluoro-6-hydroxy-phenyl)quinazolin-4-yl)-2,5-dimethyl-piperazin-1-yl) prop-2-en-1-one]	++ (++ indicates binding activity from 50 to 90%)
C=CC(=O)N1C[C@H](C)N(c2nc(OCCCN(C)C)nc3c(F)c(-c4cc(O)cc5ccccc45)c(Cl)cc23)C[C@H]1C [Compound 181, 1-((2R,5S)-4-(6-chloro-2-(3-(dimethylamino)propoxy)-8-fluoro-7-(3-hydroxy-naphthalen-1-yl)quinazolin-4-yl)-2,5-dimethyl-piperazin-1-yl) prop-2-en-1-one]	+++ (+++ indicates binding activity greater than 90%)
C=CC(=O)N1CCN(c2nc(N3CC(C)(N(C)C)C3)nc3c(F)c(-c4c(C)ccc5[nH]ncc45)c(Cl)cc23)C[C@H]1C [Compound 171, 1-((2R)-4-(6-chloro-2-(3-(dimethylamino)-3-methylazetidin-1-yl)-8-fluoro-7-(5-methyl-1H-indazol-4-yl)quinazolin-4-yl)-2-methyl-piperazin-1-yl) prop-2-en-1-one]	++ (++ indicates binding activity from 50 to 90%)
C=CC(=O)N1C[C@@H](C)N(c2nc(N3CC(N(C)C)C3)nc3c(F)c(-c4c(O)cccc4F)c(Cl)cc23)C[C@H]1C [Compound 86, 1-((2R,5R)-4-(6-chloro-2-(3-(dimethylamino)azetidin-1-yl)-8-fluoro-7-(2-fluoro-6-hydroxyphenyl)quinazolin-4-yl)-2,5-dimethyl-piperazin-1-yl) prop-2-en-1-one]	+ (+ indicates binding activity greater than 0% and up to 50%)
C=CC(=O)N1CCN(c2nc(N3CC(N(C)C)C3)nc3c(F)c(-c4c(O)cccc4F)c(Cl)cc23)C[C@@H]1C [Compound 88, 1-((2S)-4-(6-chloro-2-(3-(dimethylamino)azetidin-1-yl)-8-fluoro-7-(2-fluoro-6-hydroxyphenyl)quinazolin-4-yl)-2-methyl-piperazin-1-yl) prop-2-en-1-one]	+ (+ indicates binding activity greater than 0% and up to 50%)
C[C@@H]1CN(c2nc(N3CC(N(C)C)C3)nc3c(F)c(-c4c(O)cccc4F)c(Cl)cc23)[C@@H](C)CN1C(=O)C#CCO [Compound 113, 1-((2R,5S)-4-(6-chloro-2-(3-(dimethylamino)azetidin-1-yl)-8-fluoro-7-(2-fluoro-6-hydroxyphenyl)quinazolin-4-yl)-2,5-dimethyl-piperazin-1-yl)-4-hydroxybut-2-yn-1-one]	+++ (+++ indicates binding activity greater than 90%)
C=CC(=O)N1C[C@H](C)N(c2nc(OCCCN(C)C)nc3c(F)c(-c4c(O)cccc4F)c(C(F)(F)F)cc23)C[C@H]1C [Compound 218, 1-((2R,5S)-4-(2-(3-(dimethylamino)propoxy)-8-fluoro-7-(2-fluoro-6-hydroxyphenyl)-6-(trifluoromethyl)quinazolin-4-yl)-2,5-dimethyl-piperazin-1-yl) prop-2-en-1-one]	+++ (+++ indicates binding activity greater than 90%)
C=CC(=O)N1C[C@H](C)N(c2nc(Oc3cn[nH]c3)nc3c(F)c(-c4c(C)ccc5[nH]ncc45)c(Cl)cc23)C[C@H]1C [Compound 223, 1-((2R,5S)-4-(2-(1H-pyrazol-4-yloxy)-6-chloro-8-fluoro-7-(5-methyl-1H-indazol-4-yl)quinazolin-4-yl)-2,5-dimethyl-piperazin-1-yl) prop-2-en-1-one]	++ (++ indicates binding activity from 50 to 90%)
